Experimental data as given in patent US10336761B2, “TGFβ receptor antagonist” (BRISTOL-MYERS SQUIBB COMPANY, priority 2015, dated 2019).

These molecules were tested against HIS-TGFβR1 T204D (Homo sapiens (Human), UniProt P36897, T204D) (assay: HTRF probe-displacement assay, HIS-TGFβR1 T204D). Settings: 1 hour at room temperature.
Chain of HIS-TGFβR1 T204D (P36897 34-503 T204D): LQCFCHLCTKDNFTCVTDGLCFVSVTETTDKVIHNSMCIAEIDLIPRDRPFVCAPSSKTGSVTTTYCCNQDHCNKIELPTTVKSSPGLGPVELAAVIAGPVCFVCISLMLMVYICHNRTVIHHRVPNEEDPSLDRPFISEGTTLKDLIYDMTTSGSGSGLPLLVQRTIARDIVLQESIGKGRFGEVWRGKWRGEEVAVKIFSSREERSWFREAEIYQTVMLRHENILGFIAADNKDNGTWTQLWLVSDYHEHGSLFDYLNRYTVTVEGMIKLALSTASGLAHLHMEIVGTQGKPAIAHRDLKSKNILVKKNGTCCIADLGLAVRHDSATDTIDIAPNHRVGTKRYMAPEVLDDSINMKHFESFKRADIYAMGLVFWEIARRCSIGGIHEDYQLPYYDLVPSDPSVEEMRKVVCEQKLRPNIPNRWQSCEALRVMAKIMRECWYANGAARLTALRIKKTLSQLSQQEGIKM
Type: binding
O=C(NCCCN1CCS(=O)(=O)CC1)c1cnccc1Nc1nc(-c2ccccn2)nn2cccc12 [Example 148, N-[3-(1,1-dioxo-1,4-thiomorpholin-4-yl)propyl]-4-{[2-(pyridin-2-yl)pyrrolo[2,1-f][1,2,4]triazin-4-yl]amino}pyridine-3-carboxamide] showed an IC50 of 83 nM.
With Fc1cnccc1Nc1nc(-c2ccccn2)nn2ccc(CNc3ccc(-c4cnco4)cc3)c12 [Example 297, 3-fluoro-N-[5-({[4-(1,3-oxazol-5-yl)phenyl]amino}methyl)-2-(pyridin-2-yl)pyrrolo[2,1-f][1,2,4]triazin-4-yl]pyridin-4-amine] the IC50 was 71 nM.
In the case of O=C(N[C@H]1CCCC[C@@H]1O)c1cnccc1Nc1nc(-c2cccc(C(F)F)n2)nn2cccc12 [Example 175, 4-({2-[6-(difluoromethyl)pyridin-2-yl]pyrrolo[2,1-f][1,2,4]triazin-4-yl}amino)-N-[(1S,2S)-2-hydroxycyclohexyl]pyridine-3-carboxamide], the IC50 is reported as 480 nM.
Molecule O=C(Nc1cc(Nc2nc(-c3cccc(C(F)(F)F)n3)nn3cccc23)ccn1)[C@@H]1CCCN1 [Example 326, (2S)—N-[4-({2-[6-(trifluoromethyl)pyridin-2-yl]pyrrolo[2,1-f][1,2,4]triazin-4-yl}amino)pyridin-2-yl]pyrrolidine-2-carboxamide] has an IC50 of 88 nM.
Fc1cnccc1Nc1nc(-c2ccccn2)nn2ccc(CN3CCOCC3)c12 [Example 290, 3-fluoro-N-[5-(morpholin-4-ylmethyl)-2-(pyridin-2-yl)pyrrolo[2,1-f][1,2,4]triazin-4-yl]pyridin-4-amine] showed an IC50 of 1.2 nM.
Work on CC(=O)Nc1cc(Nc2nc(-c3cccc(C(F)F)n3)nn3cccc23)ccn1 [Example 13, N-[4-({2-[6-(difluoromethyl)pyridin-2-yl]pyrrolo[2,1-f][1,2,4]triazin-4-yl}amino)pyridin-2-yl]acetamide] yielded an IC50 of 0.19 nM.
In the case of OCC1(CNCc2ccn3nc(-c4ccccn4)nc(Nc4ccncc4F)c23)COC1 [Example 296, (3-{[({4-[(3-fluoropyridin-4-yl)amino]-2-(pyridin-2-yl)pyrrolo[2,1-f][1,2,4]triazin-5-yl}methyl)amino]methyl}oxetan-3-yl)methanol], the IC50 is reported as < 0.25 nM.
Fc1cnccc1Nc1nc(-c2ccccn2)nn2ccc(CN3CCN(c4ncccn4)CC3)c12 [Example 276, 3-fluoro-N-[2-(pyridin-2-yl)-5-{[4-(pyrimidin-2-yl)piperazin-1-yl]methyl}pyrrolo[2,1-f][1,2,4]triazin-4-yl]pyridin-4-amine] gave an IC50 of 1.6 nM.
Molecule COc1cccc(-c2nc(Nc3ccncc3F)c3cc(NS(C)(=O)=O)cn3n2)n1 [Example 22, N-{4-[(3-fluoropyridin-4-yl)amino]-2-(6-methoxypyridin-2-yl)pyrrolo[2,1-f][1,2,4]triazin-6-yl}methanesulfonamide] has an IC50 of 56 nM.
With O=C(NCc1cocn1)c1cnccc1Nc1nc(-c2cccc(C(F)F)n2)nn2cccc12 [Example 195, 4-({2-[6-(difluoromethyl)pyridin-2-yl]pyrrolo[2,1-f][1,2,4]triazin-4-yl}amino)-N-(1,3-oxazol-4-ylmethyl)pyridine-3-carboxamide] the IC50 was 26 nM.
CCC(=O)Nc1cc(Nc2nc(-c3cccc(C(F)(F)F)n3)nn3cccc23)ccn1 [Example 313, N-[4-({2-[6-(trifluoromethyl)pyridin-2-yl]pyrrolo[2,1-f][1,2,4]triazin-4-yl}amino)pyridin-2-yl]propanamide] was tested, and the IC50 was 0.89 nM.
In the case of Cc1cccc(-c2nc(Nc3ccncc3C(=O)NC[C@H](O)CO)c3cccn3n2)n1 [Example 158, N-[(2S)-2,3-dihydroxypropyl]-4-{[2-(6-methylpyridin-2-yl)pyrrolo[2,1-f][1,2,4]triazin-4-yl]amino}pyridine-3-carboxamide], the IC50 is reported as 7.9 nM.
O=C(N[C@@H]1CCCC[C@H]1O)c1cnccc1Nc1nc(-c2cccc(C(F)F)n2)nn2cccc12 [Example 180, 4-({2-[6-(difluoromethyl)pyridin-2-yl]pyrrolo[2,1-f][1,2,4]triazin-4-yl}amino)-N-[(1R,2R)-2-hydroxycyclohexyl]pyridine-3-carboxamide] was tested, and the IC50 was 380 nM.
